Measurements reported in patent publication US10500209B2, “Quinazolinones as bromodomain inhibitors” (Zenith Epigenetics Ltd., priority 2013, dated 2019).

Legend:
Parameters in all cases: key: Active: Compounds with an IC50 value less than 30 μM were deemed to be active.; Not Active: Compounds with an IC50 value less than 30 μM were deemed to be active
[1] = biological target: T1, Brd4 bromodomain 1 (BRD4(1)) (Homo sapiens, UniProt O60885); assay: Inhibition of tetra-acetylated histone H4 binding to BET bromodomains (TR-FRET); conditions: first bromodomain of Brd4, tetra-acetylated histone H4 peptide
T1 construct: made in house; host or cells: E. coli BL21(DE3)
Procedure, shortened: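 N-terminally His-tagged bromodomain (200 nM) from E. coli was mixed with biotinylated tetra-acetylated histone H4 peptide (25-50 nM), Eu-streptavidin and XL665 anti-His, plus compound, in HEPES pH 7.4 buffer with 0.2% DMSO. After 2 h at room temperature, the 665/620 nm TR-FRET decrease gave IC50 from dose-response curves.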

hIL-17 mRNA = assay: Inhibition of hIL-17 mRNA transcription in OKT3-stimulated PBMC; assay type: cell-based; conditions: human peripheral blood mononuclear cells, OKT3 antibody, 6 h
Description: In this example, hIL-17 mRNA in human peripheral blood mononuclear cells was quantitated to measure the transcriptional inhibition of hIL-17 when treated with a compound of the invention.
Human peripheral blood mononuclear cells were plated (2.0×10^5 cells per well) in a 96-well plate in 45 μL OpTimizer T Cell expansion media containing 20 ng/ml IL-2 and penicillin/streptomycin. The cells were treated with the test compound (45 μL at 2x concentration), and then the cells were incubated at 37° C. for 1 h before addition of 10x stock OKT3 antibody at 10 ug/ml in media. Cells were incubated at 37° C. for 6 h before the cells were harvested. At time of harvest, cells were centrifuged (800 rpm, 5 min). Spent media was removed and cell lysis solution (70 μL) was added the cells in each well and incubated for 5-10 min at room temperature, to allow for complete cell lysis and detachment. mRNA was then prepared using the “mRNA Catcher PLUS plate” (Invitrogen), according to the protocol supplied. […]
The eluted mRNA isolated was then used in a one-step quantitative RT-PCR reaction, using components of the Ultra Sense Kit together with Applied Biosystems primer-probe mixes. Real-time PCR data was analyzed, normalizing the Ct values for hIL-17 to an internal control, prior to determining the fold induction of each unknown sample, relative to the control.

c-myc in MV4-11 cells = assay: Inhibition of c-myc expression in cancer cell lines (mRNA, real-time PCR); assay type: cell-based, Human; conditions: 3 h
Procedure, shortened: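 Duplex RT-qPCR of c-myc against cyclophilin cDNA gave IC50 from a dose–response curve. Input was isolated mRNA from 2.5×10^4 MV4-11 cells after 3 h exposure at 37 °C to compound or 0.1% DMSO vehicle.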

hIL-6 mRNA = assay: Inhibition of hIL-6 mRNA transcription in LPS-stimulated U937 macrophages; assay type: cell-based, human; conditions: U937 cells differentiated with PMA, LPS stimulation, 3 h
Procedure, shortened: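 U937 cells, PMA-differentiated (60 ng/mL, 3 days), pretreated 1 h with compound, then stimulated with 1 ug/mL E. coli LPS for 3 h at 37° C. hIL-6 mRNA measured by one-step qRT-PCR, normalized to internal control, as fold induction relative to control.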

human AML MV-4-11 cells = assay: Inhibition of cell proliferation in cancer cell lines (CellTiter Aqueous One); assay type: cell-based; conditions: 72 h
Procedure, shortened: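 IC50 values come from blank-corrected proliferation relative to DMSO controls, read as 490 nm absorbance 3–4 h after CellTiter Aqueous One addition. Before that, cells seeded at 5×10^4/well were exposed for 72 h (37° C, 5% CO2) to triplicate two-fold compound dilutions spanning 30–0.2 μM.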

COc1ccc(-c2nc3cc(OC)cc(OC)c3c(=O)[nH]2)c(NC2CCN(C(=O)C(C)C)CC2)c1 [Example 19, 2-(2-((1-Isobutyrylpiperidin-4-yl)amino)-4-methoxyphenyl)-5,7-dimethoxyquinazolin-4(3H)-one]
Active: FRET activity BRD4(1) [1] | IL-17 activity (IC50 < 30 μM) (hIL-17 mRNA) | c-myc activity (IC50 < 30 μM) (c-myc in MV4-11 cells) | IL-6 activity (IC50 < 30 μM) (hIL-6 mRNA) | Cell Proliferation activity (IC50 < 30 μM) (human AML MV-4-11 cells)
